We go through one compound from ChEMBL document CHEMBL1649140, “Accelerated metabolism of voriconazole and its partial reversal by cimetidine” (Antimicrob Agents Chemother, 2009).

The term MIC denotes the lowest concentration that inhibits growth of the organism. A higher MIC goes with weaker potency.

The test system of series [1] is Aspergillus ustus. Put plainly: Antifungal activity against Aspergillus ustus. It is filed as functional.
A short description of series [2]: Cmin in patient with invasive pulmonary aspergillosis at 9.2 mg/kg, iv administered every 12 hrs measured after 8 days. It is filed as ADME, organism-based. Set-up: dose 9.2 mg/kg, route intravenous. Conditions: human, in vivo, read-out: Cmin.

Values after ≈ are worked out from the molar mass of the structure shown.

In series [1], `C[C@@H](c1ncncc1F)[C@](O)(Cn1cncn1)c1ccc(F)cc1F` [VORICONAZOLE] returned an MIC of 4 µg/mL (≈ 11.5 µM). The concentration at 192 h in series [2] was 1170 ng/mL.
